Where a name gives a salt, the structure may show the parent alone. Read-outs that look alike come from different tables or passages of the source.
Experiments:
[1] = molecular target: T1, human Dopamine D2L receptor (Homo sapiens, UniProt P14416); assay: In vitro binding affinity for human D2L receptor ([3H]Spiperone)
T1 construct: expressed in transfected cells; host or cells: CHO cells
Protocol: Frozen membranes of human Dopamine D2L receptor-transfected CHO cells were thawed, briefly homogenised using an Ultra-Turrax T25 homogeniser and diluted in Tris-HCl assay buffer containing NaCl, CaCl2, MgCl2, KCl (50, 120, 2, 1, and 5 mM respectively, adjusted to pH 7.7 with HCl) to an appropriate protein concentration optimised for specific and non-specific binding. Radioligand [^3H]Spiperone (NEN, specific activity ˜70 Ci/mmol) was diluted in assay buffer at a concentration of 2 nmol/L. Prepared radioligand (50 μl), along with 50 μl of either the 10% DMSO control, Butaclamol (10^−6 mol/l final concentration), or compound of interest, was then incubated (30 min, 37° C.) with 400 μl of the prepared membrane solution. Membrane-bound activity was filtered through a Packard Filtermate harvester onto GF/B Unifilterplates and washed with ice-cold Tris-HCl buffer (50 mM; pH 7.7; 6×0.5 ml). Filters were allowed to dry before adding scintillation fluid and counting in a Topcount scintillation counter. Percentage specific bound and competition binding curves were calculated using S-Plus software (Insightful).

[2] = molecular target: T2, human cloned 5-HT2C receptor (Homo sapiens, UniProt P28335); assay: In vitro binding affinity for 5-HT2C receptor (radioligand binding)
T2 construct: expressed in transfected cells; host or cells: CHO cells
T2 sequence (P28335 33-458): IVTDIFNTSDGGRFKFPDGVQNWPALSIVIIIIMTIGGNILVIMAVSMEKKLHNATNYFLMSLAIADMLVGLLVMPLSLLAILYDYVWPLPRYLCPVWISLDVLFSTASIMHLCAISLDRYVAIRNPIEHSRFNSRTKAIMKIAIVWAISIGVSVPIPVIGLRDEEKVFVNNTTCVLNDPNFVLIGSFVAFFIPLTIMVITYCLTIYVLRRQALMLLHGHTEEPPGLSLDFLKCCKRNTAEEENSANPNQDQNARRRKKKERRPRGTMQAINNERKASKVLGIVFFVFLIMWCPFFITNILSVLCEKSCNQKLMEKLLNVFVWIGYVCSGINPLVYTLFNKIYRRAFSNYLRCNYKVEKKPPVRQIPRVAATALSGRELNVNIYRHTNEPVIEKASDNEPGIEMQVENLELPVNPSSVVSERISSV
Protocol: (§1) During the incubation, the radioligands bind to the receptor. When equilibrium of binding is reached, the receptor bound radioactivity is separated from the non-bound radioactivity, and the receptor bound activity is counted. The interaction of the test compounds with the receptors is assessed in competition binding experiments. Various concentrations of the test compound are added to the incubation mixture containing the tissue preparation and the radioligand. Binding of the radioligand will be inhibited by the test compound in proportion to its binding affinity and its concentration.

NET = molecular target: T3, NET (Rattus norvegicus, UniProt Q9WTR4); assay: In vitro determination of NET reuptake inhibition ([3H]Nixosetine binding, rat brain cortex)
T3 construct: Cortex from rat brain was collected and homogenised; from tissue; host or cells: rat brain cortex
Protocol: Cortex from rat brain was collected and homogenised using an Ultra-Turrax T25 and a Dual homogeniser in ice-cold homogenising buffer containing Tris, NaCl and KCl (50 mM, 120 mM and 5 mM, respectively, pH 7.4) prior to dilution to an appropriate protein concentration optimised for specific and non-specific binding. […] Membrane-bound activity was detected by filtration through a Packard Filtermate harvester onto GF/B Unifilterplates, washed with ice-cold Tris-HCl buffer, containing NaCl and KCl (50 mM, 120 mM and 4 mM; pH 7.4; 6×0.5 ml). Filters were allowed to dry for 24 h before adding scintillation fluid. Scintillation fluid was allowed to saturate filters for 24 h before counting in a Topcount scintillation counter. Percentage specific bound and competition binding curves were calculated using S-Plus software (Insightful).

[3] = molecular target: T4, human cloned 5-HT2A receptor (Homo sapiens, UniProt P28223); assay: In vitro binding affinity for 5-HT2A receptor (radioligand binding)
T4 construct: expressed in transfected cells; host or cells: L929 cells
Protocol: as §1, with “concentration. The affinities of the compounds for the 5-HT2 receptors were measured by means of radioligand binding studies conducted with: (a) human cloned 5-HT2A receptor, expressed in L929 cells using [^125I]R91150 as radioligand and (b) human cloned 5-HT2C receptor, expressed in CHO cells using [^3H]mesulergine as radioligand.” for “concentration.”

[4] = human D2L receptor-transfected CHO cell membranes, [3H]Spiperone, read-out: h-D2L (converted)
[5] = human cloned 5-HT2C receptor, radioligand binding, read-out: h-5HT2C (converted)
[6] = rat brain cortex, [3H]Nixosetine, read-out: NET Reuptake Inhibition (converted)
[7] = human cloned 5-HT2A receptor, radioligand binding, read-out: h-5HT2A (converted)
[8] = h-D2L, human D2L receptor-transfected CHO cell membranes, [3H]Spiperone
[9] = h-5HT2C, human cloned 5-HT2C receptor, radioligand binding
[10] = NET Reuptake Inhibition, rat brain cortex, [3H]Nixosetine
[11] = h-5HT2A, human cloned 5-HT2A receptor, radioligand binding

T3 sequence (Q9WTR4 1-597): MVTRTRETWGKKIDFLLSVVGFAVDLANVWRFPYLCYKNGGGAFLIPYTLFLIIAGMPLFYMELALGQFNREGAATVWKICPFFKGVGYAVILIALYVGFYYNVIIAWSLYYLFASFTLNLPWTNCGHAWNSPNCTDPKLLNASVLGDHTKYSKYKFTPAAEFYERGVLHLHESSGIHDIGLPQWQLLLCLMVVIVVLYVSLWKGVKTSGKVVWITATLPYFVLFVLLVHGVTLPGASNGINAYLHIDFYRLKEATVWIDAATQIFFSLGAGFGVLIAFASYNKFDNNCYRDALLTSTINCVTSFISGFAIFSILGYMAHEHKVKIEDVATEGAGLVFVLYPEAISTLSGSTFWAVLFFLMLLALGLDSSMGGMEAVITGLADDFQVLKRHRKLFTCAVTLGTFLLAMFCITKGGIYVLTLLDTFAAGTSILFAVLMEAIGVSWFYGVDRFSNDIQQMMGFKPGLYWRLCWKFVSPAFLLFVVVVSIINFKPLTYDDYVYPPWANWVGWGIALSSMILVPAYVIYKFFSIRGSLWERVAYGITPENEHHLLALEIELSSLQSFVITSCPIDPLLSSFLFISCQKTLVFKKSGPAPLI
T4 sequence (P28223 whole entry): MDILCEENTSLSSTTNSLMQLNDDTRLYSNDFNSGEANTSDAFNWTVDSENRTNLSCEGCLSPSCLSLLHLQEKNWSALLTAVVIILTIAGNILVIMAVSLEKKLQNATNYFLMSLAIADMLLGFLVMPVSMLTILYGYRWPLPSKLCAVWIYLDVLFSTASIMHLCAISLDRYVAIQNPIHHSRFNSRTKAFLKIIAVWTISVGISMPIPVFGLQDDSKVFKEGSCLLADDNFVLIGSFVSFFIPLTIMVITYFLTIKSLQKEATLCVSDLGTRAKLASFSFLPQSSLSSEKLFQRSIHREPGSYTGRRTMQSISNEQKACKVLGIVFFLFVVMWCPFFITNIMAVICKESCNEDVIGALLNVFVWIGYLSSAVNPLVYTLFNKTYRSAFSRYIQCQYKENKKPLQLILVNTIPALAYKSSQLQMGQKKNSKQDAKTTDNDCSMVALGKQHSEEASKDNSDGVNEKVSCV
T1 sequence (P14416 whole entry): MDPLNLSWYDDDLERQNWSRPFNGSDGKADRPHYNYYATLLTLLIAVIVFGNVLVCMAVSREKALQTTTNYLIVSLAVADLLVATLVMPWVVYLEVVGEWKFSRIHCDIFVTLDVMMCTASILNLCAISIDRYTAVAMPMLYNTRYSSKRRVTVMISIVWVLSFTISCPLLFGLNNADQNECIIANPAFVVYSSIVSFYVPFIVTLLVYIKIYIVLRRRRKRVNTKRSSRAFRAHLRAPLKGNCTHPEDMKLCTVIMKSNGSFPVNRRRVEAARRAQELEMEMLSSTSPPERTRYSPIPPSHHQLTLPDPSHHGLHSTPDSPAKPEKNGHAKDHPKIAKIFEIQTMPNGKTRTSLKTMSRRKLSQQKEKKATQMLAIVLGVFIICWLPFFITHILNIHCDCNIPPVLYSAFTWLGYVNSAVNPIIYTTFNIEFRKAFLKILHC

Row | Compound | IC50 [1, 4] [nM] | IC50 [2, 5] [nM] | IC50 (NET; [6]) [nM] | IC50 [3, 7] [nM] | also measured
1 | CCNCC1CC2=C(O1)c1cc(F)ccc1Sc1ccccc12 (stereo not shown) (as salt: oxalate) [Compound 18] | – | – | – | – | melting point: 240.7 °C
2 | CN(C)CC1CC2=C(O1)c1ccccc1Cc1ccccc12 (stereo not shown) (as salt: oxalate) [Compound 22] | – | – | – | – | melting point: 172.8 °C
3 | O=S(=O)(c1ccccc1)N1CCN(CC2CC3=C(O2)c2cc(F)ccc2Cc2ccccc23)CC1 (stereo not shown) [Compound 48] | 3160 | 200 | > 10000 | 398 | –
4 | Cc1ccc(S(=O)(=O)N2CCN(CC3CC4=C(O3)c3cc(F)ccc3Oc3ccccc34)CC2)cc1 (stereo not shown) [Compound 50] | 2000 | 316 | 1580 | 200 | –
5 | CC(C)OC(=O)N1CCN(CC2CC3=C(O2)c2cc(F)ccc2Cc2ccccc23)CC1 (stereo not shown) [Compound 63] | 3980 | 501 | > 10000 | 251 | –
6 | O=C(Oc1ccccc1)N1CCN(CC2CC3=C(O2)c2cc(F)ccc2Cc2ccccc23)CC1 (stereo not shown) [Compound 65] | – | – | – | – | IC50 [1, 8]: 1000 nM; IC50 [2, 9]: 126 nM; IC50 (NET; [10]): 3160 nM; IC50 [3, 11]: 50.1 nM
7 | O=C(Oc1ccccc1)N1CCN(CC2CC3=C(O2)c2cc(F)ccc2Oc2ccccc23)CC1 (stereo not shown) [Compound 66] | – | – | – | – | IC50 [1, 8]: 794 nM; IC50 [2, 9]: 316 nM; IC50 (NET; [10]): 1260 nM; IC50 [3, 11]: 126 nM
8 | COc1ccc(OC(=O)N2CCN(CC3CC4=C(O3)c3cc(F)ccc3Cc3ccccc34)CC2)cc1 (stereo not shown) [Compound 67] | – | – | – | – | IC50 [1, 8]: 398 nM; IC50 [2, 9]: 50.1 nM; IC50 (NET; [10]): 3160 nM; IC50 [3, 11]: 20 nM
9 | COc1ccc(OC(=O)N2CCN(CC3CC4=C(O3)c3cc(F)ccc3Oc3ccccc34)CC2)cc1 (stereo not shown) [Compound 68] | – | – | – | – | IC50 [1, 8]: 794 nM; IC50 [2, 9]: 251 nM; IC50 (NET; [10]): 1580 nM; IC50 [3, 11]: 63.1 nM
10 | O=C(OCc1ccccc1)N1CCN(CC2CC3=C(O2)c2cc(F)ccc2Cc2ccccc23)CC1 (stereo not shown) [Compound 69] | 1260 | 1000 | 7940 | 501 | –
11 | O=C(OCc1ccccc1)N1CCN(CC2CC3=C(O2)c2cc(F)ccc2Oc2ccccc23)CC1 (stereo not shown) [Compound 70] | 251 | 631 | > 10000 | 1000 | –
12 | O=C(c1ccccc1)N1CCN(CC2CC3=C(O2)c2cc(F)ccc2Cc2ccccc23)CC1 (stereo not shown) [Compound 71] | 126 | 15.8 | 5010 | 6.31 | –
13 | O=C(c1ccccc1)N1CCN(CC2CC3=C(O2)c2cc(F)ccc2Oc2ccccc23)CC1 (stereo not shown) [Compound 72] | 398 | 63.1 | 6310 | 25.1 | –
14 | O=C(NCc1ccccc1)N1CCN(CC2CC3=C(O2)c2cc(F)ccc2Cc2ccccc23)CC1 (stereo not shown) [Compound 87] | 794 | 100 | 7940 | 631 | –
15 | O=C(NCc1ccccc1)N1CCN(CC2CC3=C(O2)c2cc(F)ccc2Oc2ccccc23)CC1 (stereo not shown) [Compound 88] | 1260 | 100 | 1580 | 158 | –
16 | CCCn1c2c(c3ccccc31)C1=C(CC(CNC)O1)c1ccccc1S2 (stereo not shown) [Compound 93] | 398 | 10 | 100 | 25.1 | –
17 | CCCn1c2c(c3ccccc31)C1=C(CC(CN(C)C)O1)c1ccccc1S2 (stereo not shown) [Compound 94] | 1000 | 39.8 | 1260 | 126 | –
18 | C=CCn1c2c(c3ccccc31)C1=C(CC(CNC)O1)c1ccccc1S2 (stereo not shown) [Compound 95] | 398 | 6.31 | 158 | 7.94 | –
19 | CN(CC(=O)O)C[C@H]1CC2=C(O1)c1cc(F)ccc1Cc1ccccc12 [Compound 107] | 3980 | 7.94 | – | 10 | melting point: 194.7 °C
20 | CN(CCC(=O)O)C[C@H]1CC2=C(O1)c1cc(F)ccc1Cc1ccccc12 [Compound 108] | 3980 | 12.6 | 398 | 12.6 | –
21 | CN(C/C=C/C(=O)O)C[C@H]1CC2=C(O1)c1cc(F)ccc1Cc1ccccc12 [Compound 109] | 3160 | 12.6 | 398 | 15.8 | –
22 | CN(C/C=C/c1ccccc1)C[C@H]1CC2=C(O1)c1cc(F)ccc1Cc1ccccc12 [Compound 110] | – | – | – | – | IC50 ([1]; h-D2L): 158 nM; IC50 ([2]; h-5HT2C): 5.01 nM; IC50 (NET; NET Reuptake Inhibition): 1000 nM; IC50 ([3]; h-5HT2A): 12.6 nM
23 | CCOC(=O)CN(C)C[C@H]1CC2=C(O1)c1cc(F)ccc1Cc1ccccc12 [Compound 113] | 1580 | 10 | 3980 | 15.8 | –
24 | CNC(=O)CN(C)C[C@H]1CC2=C(O1)c1cc(F)ccc1Cc1ccccc12 [Compound 116] | 3160 | 7.94 | 2510 | 10 | –
25 | CN(CC(=O)NS(C)(=O)=O)C[C@H]1CC2=C(O1)c1cc(F)ccc1Cc1ccccc12 [Compound 120] | – | – | – | – | melting point: 88.5 °C
26 | CCS(=O)(=O)N(C)CC1CC2=C(O1)c1cc(F)ccc1Cc1ccccc12 (stereo not shown) [Compound 127] | > 10000 | 10 | > 10000 | 200 | –
27 | CN(C)CC1CC2=C(O1)c1ccsc1Cc1ccccc12 (stereo not shown) [Compound 131] | 200 | 7.94 | 794 | 39.8 | melting point: 174 to 176 °C
28 | CNCC1CC2=C(O1)c1ccc(F)cc1Cc1ccccc12 (stereo not shown) [Compound 135] | 3160 | 2.51 | 631 | 5.01 | –
29 | CNCC1CC2=C(O1)c1c(F)cccc1Cc1ccccc12 (stereo not shown) [Compound 136] | 1580 | 2 | 100 | 25.1 | –
30 | CN(C)CCC1CC2=C(O1)c1cc(F)ccc1Cc1ccccc12 (stereo not shown) [Compound 137] | 1580 | 3.16 | 158 | 12.6 | –
